Laboratory results taken from US8557843B2, “Quinoline derivatives and their use as tyrosine kinase inhibitors” (ClanoTech AB, priority 2007, dated 2013).

Key:
alpha-5-beta-1 = biological target: T1, alpha-5-beta-1 (Homo sapiens, UniProt P05556+P08648); test: Integrin assay: SHG, inhibition of RGD-peptide-induced conformational change; assay type: biochemical; details: compound pre-incubated at 100 μM for 20 minutes, then RGD peptide 400 μM; labeled alpha-5-beta-1
T1 construct: obtained from academic sources as recombinant, soluble proteins (the extracellular domain)
T1 sequence (P08648 42-995 limits assumed): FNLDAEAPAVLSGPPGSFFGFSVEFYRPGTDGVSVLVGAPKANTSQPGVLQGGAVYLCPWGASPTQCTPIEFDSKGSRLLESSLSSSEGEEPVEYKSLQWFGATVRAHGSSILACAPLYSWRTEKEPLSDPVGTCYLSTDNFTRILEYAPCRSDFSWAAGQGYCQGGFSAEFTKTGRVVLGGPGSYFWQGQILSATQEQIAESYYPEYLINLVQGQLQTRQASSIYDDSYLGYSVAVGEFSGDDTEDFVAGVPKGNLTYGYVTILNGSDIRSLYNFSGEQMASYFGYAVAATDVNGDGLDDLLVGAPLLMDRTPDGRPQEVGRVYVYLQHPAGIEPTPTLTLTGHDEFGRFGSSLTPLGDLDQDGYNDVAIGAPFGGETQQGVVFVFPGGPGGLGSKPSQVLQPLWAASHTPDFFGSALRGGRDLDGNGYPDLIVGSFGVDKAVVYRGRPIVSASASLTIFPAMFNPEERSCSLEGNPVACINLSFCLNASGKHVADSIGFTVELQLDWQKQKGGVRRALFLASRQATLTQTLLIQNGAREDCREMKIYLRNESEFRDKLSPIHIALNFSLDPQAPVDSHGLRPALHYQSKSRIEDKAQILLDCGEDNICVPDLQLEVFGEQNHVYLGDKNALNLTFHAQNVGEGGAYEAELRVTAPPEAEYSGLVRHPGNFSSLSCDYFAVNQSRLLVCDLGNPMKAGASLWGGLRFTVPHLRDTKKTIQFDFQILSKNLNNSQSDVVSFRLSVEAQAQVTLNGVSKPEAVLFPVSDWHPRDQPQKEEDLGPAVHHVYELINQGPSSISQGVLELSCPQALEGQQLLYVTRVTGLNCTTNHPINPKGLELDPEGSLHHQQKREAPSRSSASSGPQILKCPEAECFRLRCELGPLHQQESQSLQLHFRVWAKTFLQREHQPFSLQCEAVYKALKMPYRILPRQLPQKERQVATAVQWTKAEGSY
T1 sequence (P05556 21-728 limits assumed): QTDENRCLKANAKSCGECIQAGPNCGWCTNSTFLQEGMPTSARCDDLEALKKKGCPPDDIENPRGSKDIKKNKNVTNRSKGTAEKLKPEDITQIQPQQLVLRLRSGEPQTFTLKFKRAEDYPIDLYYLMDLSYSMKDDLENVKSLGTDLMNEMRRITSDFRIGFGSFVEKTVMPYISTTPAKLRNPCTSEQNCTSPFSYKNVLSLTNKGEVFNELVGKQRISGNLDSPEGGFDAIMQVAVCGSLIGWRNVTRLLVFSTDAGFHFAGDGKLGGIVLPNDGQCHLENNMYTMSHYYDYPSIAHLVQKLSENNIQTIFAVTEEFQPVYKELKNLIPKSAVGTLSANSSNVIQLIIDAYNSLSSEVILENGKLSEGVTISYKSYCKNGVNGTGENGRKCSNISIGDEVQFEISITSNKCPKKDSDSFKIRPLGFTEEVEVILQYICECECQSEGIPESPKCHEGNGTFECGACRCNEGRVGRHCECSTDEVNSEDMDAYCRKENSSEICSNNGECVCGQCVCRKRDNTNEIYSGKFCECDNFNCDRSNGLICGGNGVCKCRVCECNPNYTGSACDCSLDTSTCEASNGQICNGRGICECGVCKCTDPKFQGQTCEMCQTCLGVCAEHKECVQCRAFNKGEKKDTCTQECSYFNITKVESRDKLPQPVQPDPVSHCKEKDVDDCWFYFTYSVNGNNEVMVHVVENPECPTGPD
Procedure: (§1) This assay was conducted by Biodesy (Burlingame, Calif., USA). Purified integrins were obtained from academic and commercial sources. Alpha-5-beta-1 and alpha-v-beta-3 were obtained from academic sources as recombinant, soluble proteins (the extracellular domain).
(§2) A standard labeling protocol developed for integrins was applied to each of the three proteins. All proteins were successfully labeled with an average label:protein ratio of ˜4:1. The two soluble, labeled proteins (alpha5beta1 and alphavbeta3) produced background SHG (second-harmonic generation) signals. They also produced conformational change signals upon exposure to GRGDSP (RGD-peptide, a fibronectin-derived peptide Gly-Arg-Gly-Asp-Ser-Pro). The peptide was added at 400 μM and signal changes were immediate (FIG. 1).
(§3) Next, Example 4 was pre-incubated at 100 μM with the labeled proteins for 20 minutes. RGD peptide was then added (400 μM) to stimulate the protein and to test each compound for inhibition.

alpha-v-beta-3 = biological target: T2, alpha-v-beta-3 (Homo sapiens, UniProt P05106+P06756); test: as above; assay type: biochemical; details: compound pre-incubated at 100 μM for 20 minutes, then RGD peptide 400 μM; labeled alpha-v-beta-3
T2 construct: obtained from academic sources as recombinant, soluble proteins (the extracellular domain)
T2 sequence (P06756 31-992 limits assumed): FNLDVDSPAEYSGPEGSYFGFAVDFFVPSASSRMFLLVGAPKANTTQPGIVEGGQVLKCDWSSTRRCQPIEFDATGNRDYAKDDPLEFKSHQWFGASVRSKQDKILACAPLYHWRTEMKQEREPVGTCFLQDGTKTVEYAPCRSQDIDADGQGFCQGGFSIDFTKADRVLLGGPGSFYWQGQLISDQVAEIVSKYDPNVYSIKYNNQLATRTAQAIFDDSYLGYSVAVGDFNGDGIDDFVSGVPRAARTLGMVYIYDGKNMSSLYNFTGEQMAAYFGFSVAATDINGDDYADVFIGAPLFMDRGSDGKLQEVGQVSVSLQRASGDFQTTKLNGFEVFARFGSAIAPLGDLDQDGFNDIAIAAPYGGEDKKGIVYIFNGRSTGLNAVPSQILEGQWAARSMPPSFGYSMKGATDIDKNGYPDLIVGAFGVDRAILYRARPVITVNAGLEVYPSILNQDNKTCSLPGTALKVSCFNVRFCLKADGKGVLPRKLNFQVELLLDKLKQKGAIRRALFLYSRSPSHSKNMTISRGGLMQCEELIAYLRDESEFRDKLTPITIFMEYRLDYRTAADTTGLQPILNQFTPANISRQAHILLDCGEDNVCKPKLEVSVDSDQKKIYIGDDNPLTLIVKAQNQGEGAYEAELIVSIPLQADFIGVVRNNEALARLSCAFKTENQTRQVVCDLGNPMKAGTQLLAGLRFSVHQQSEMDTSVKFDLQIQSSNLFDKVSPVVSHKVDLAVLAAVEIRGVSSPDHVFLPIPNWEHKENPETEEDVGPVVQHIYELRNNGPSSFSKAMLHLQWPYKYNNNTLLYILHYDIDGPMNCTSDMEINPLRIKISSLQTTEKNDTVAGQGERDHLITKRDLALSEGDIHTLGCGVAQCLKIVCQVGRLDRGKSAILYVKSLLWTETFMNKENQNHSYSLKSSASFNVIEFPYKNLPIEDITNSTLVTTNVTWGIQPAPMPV
T2 sequence (P05106 27-718 limits assumed): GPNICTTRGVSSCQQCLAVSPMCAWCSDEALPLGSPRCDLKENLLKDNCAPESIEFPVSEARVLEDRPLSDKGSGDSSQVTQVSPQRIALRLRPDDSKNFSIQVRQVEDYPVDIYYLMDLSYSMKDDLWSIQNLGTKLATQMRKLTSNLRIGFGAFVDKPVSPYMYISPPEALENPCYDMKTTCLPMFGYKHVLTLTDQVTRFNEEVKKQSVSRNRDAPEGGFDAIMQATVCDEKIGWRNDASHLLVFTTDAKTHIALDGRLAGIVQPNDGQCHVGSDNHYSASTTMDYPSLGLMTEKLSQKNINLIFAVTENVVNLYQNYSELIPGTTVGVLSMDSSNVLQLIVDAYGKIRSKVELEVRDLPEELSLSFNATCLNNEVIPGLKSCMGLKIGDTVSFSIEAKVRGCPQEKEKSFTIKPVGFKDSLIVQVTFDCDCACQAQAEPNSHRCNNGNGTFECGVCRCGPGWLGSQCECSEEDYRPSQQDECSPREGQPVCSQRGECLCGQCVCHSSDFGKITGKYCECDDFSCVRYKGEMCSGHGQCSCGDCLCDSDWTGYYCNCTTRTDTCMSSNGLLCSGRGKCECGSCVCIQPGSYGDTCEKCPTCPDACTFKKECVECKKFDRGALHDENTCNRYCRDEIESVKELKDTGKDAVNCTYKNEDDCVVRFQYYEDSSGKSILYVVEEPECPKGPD
Procedure: as §1, §2, §3

[1] = test system: human Calu-6 lung cancer cells; test: Tumor xenograft model; assay type: in vivo, SCID mice; details: 25 mg/kg/day; for inhibition of tumor volume: once daily for 17 days, Calu-6 subcutaneous in SCID mice
Procedure: Female 6-week-old SCID mice were used for tumor studies. Approximately 10^6 human Calu-6 lung cancer cells growing in logarithmic phase were harvested and resuspended in media, and a single cell solution in a volume of […] was implanted subcutaneously at the right flank of each animal. 10 mice were used in the treated groups and 10 mice were used in the control groups. Systemic treatment by oral administration or iv injections with either […] of vehicle or active substance (25 mg/kg/day) was begun when tumors reached a size of 300 mm^3 and continued once daily for a total of 17 days. Visible tumors were present day 5-10 after implantation. Primary tumors were measured with digital calipers on the days indicated. Tumor volumes were calculated according to the formula: Length×width^2×0.52 as reported.

[2] = test system: CNV (chorodial neovascularization); test: Laser induced mouse eye model (CNV); assay type: in vivo; details: given orally at 50 mg/kg/day, laser-induced CNV in mice
Excerpt: This laser-induced model of CNV is a highly reproducible model that mimics many features of CNV occurring in the wet form of age-related macular degeneration (AMD), the leading cause of blindness in the elderly.

- effect on RGD-induced conformational change (SHG signal) (alpha-v-beta-3): no effect
Structure (SMILES): CNC(=O)c1ccc2ncc(C(=O)O)c(Nc3ccc(OC)cc3)c2c1 [Example 4, 4-[(4-Methoxyphenyl)amino]-6-(methylcarbamoyl)quinoline-3-carboxylic Acid]
- effect on RGD-induced conformational change (SHG signal) (alpha-5-beta-1): prevented RGD-induced conformational change
- inhibition of angiogenesis ([1]; both groups (oral and iv), Calu-6 xenograft): inhibits angiogenesis significantly
- inhibition of tumor volume ([1]; iv treatment): 71%
- inhibition of tumor volume ([1]; oral treatment): 52%
- inhibition of CNV growth in eye compared with control [2]: 42%
